{"source": "patent US9457033B2", "about": "“Steroid alkaloids and uses thereof as antimicrobial agents against electron transport-deficient microbes and as potentiators for antimicrobial agents against pathogenic bacteria” (priority 2011, dated 2016)", "key": {"S. aureus Newbould": {"system": "S. aureus Newbould", "assay": "MIC, microdilution in CAMHB 24 h", "type": "cell-based, Staphylococcus aureus", "settings": "Newbould; for MIC: Staphylococcus aureus"}, "S. aureus MRSA COL": {"system": "S. aureus MRSA COL", "assay": "MIC, microdilution in CAMHB 24 h", "type": "cell-based, Staphylococcus aureus", "settings": "MRSA COL; for MIC: Staphylococcus aureus"}, "S. aureus CF2A-L": {"system": "S. aureus CF2A-L", "assay": "MIC, microdilution in CAMHB 24 h", "type": "cell-based", "settings": "CF2A-L; for MIC: Staphylococcus aureus, CF2AL"}, "S. aureus MA078038": {"system": "S. aureus MA078038", "assay": "MIC, microdilution in CAMHB 24 h", "type": "cell-based, Staphylococcus aureus", "settings": "for MIC: Staphylococcus aureus"}, "S. aureus ATCC 43300": {"system": "S. aureus ATCC 43300", "assay": "MIC, microdilution in CAMHB 24 h", "type": "cell-based, Staphylococcus aureus", "settings": "ATCC 43300; for MIC: Staphylococcus aureus"}, "S. aureus N315": {"system": "S. aureus N315", "assay": "microbe, parasite or virus in culture", "type": "cell-based, Staphylococcus aureus", "settings": "for MIC: Staphylococcus aureus"}, "[1]": {"settings": "8 μg/ml of tomatidine, read-out: MIC +TO"}, "[2]": {"settings": "absence of tomatidine, read-out: MIC −TO"}}, "note": "Like-named read-outs stand apart in the source and are kept apart here.", "data": [{"compound": "NC[C@H]1O[C@H](O[C@H]2[C@H](O)[C@@H](O[C@H]3O[C@H](CO)[C@@H](O)[C@H](N)[C@H]3O)[C@H](N)C[C@@H]2N)[C@H](O)[C@@H](O)[C@@H]1O", "note": "[Kanamycin, kanamycin]", "values": [{"measurement": "Fold (−TO/+TO)", "setting": "S. aureus Newbould; 8 μg/ml of tomatidine", "result": 8, "unit": "fold"}, {"measurement": "MIC", "setting": "S. aureus Newbould; [1]", "result": 0.5, "unit": "µg/mL"}, {"measurement": "MIC", "setting": "S. aureus Newbould; Cow (mastitis), read-out: MIC", "result": 4, "unit": "µg/mL"}, {"measurement": "MIC", "setting": "S. aureus Newbould; [2]", "result": 4, "unit": "µg/mL"}, {"measurement": "Fold (−TO/+TO)", "setting": "S. aureus MRSA COL; 8 μg/ml of tomatidine", "result": 8, "unit": "fold"}, {"measurement": "MIC", "setting": "S. aureus MRSA COL; [1]", "result": 0.5, "unit": "µg/mL"}, {"measurement": "MIC", "setting": "S. aureus MRSA COL; Human (SSTI), read-out: MIC", "result": 4, "unit": "µg/mL"}, {"measurement": "MIC", "setting": "S. aureus MRSA COL; [2]", "result": 4, "unit": "µg/mL"}, {"measurement": "Fold (−TO/+TO)", "setting": "S. aureus CF2A-L; 8 μg/ml of tomatidine", "result": 8, "unit": "fold"}, {"measurement": "MIC", "setting": "S. aureus CF2A-L; [1]", "result": 0.5, "unit": "µg/mL"}, {"measurement": "MIC", "setting": "S. aureus CF2A-L; Human (CF lungs), read-out: MIC", "result": 4, "unit": "µg/mL"}, {"measurement": "MIC", "setting": "S. aureus CF2A-L; [2]", "result": 4, "unit": "µg/mL"}, {"measurement": "Fold (−TO/+TO)", "setting": "S. aureus MA078038; MA078038, 8 μg/ml of tomatidine", "result": ">1", "unit": "fold"}, {"measurement": "MIC", "setting": "S. aureus MA078038; MA078038, aph(3′)-IIIa, 8 μg/ml of tomatidine, read-out: MIC +TO", "result": 1020, "unit": "µg/mL"}, {"measurement": "MIC", "setting": "S. aureus MA078038; MA078038, aph(3′)-IIIa, absence of tomatidine, read-out: MIC −TO", "result": "> 1020", "unit": "µg/mL"}, {"measurement": "MIC", "setting": "S. aureus MA078038; MA078038, Human (CA), MRSA, read-out: MIC", "result": "> 1020", "unit": "µg/mL"}, {"measurement": "Fold (−TO/+TO)", "setting": "S. aureus ATCC 43300; 8 μg/ml of tomatidine", "result": "2-4 fold"}, {"measurement": "MIC", "setting": "S. aureus ATCC 43300; ATCC 43300 / MRSA, Human (HA), MRSA, read-out: MIC", "result": "512 to 1020", "unit": "µg/mL"}, {"measurement": "MIC", "setting": "S. aureus ATCC 43300; ATCC43300, 8 μg/ml of tomatidine, read-out: MIC +TO", "result": 256, "unit": "µg/mL"}, {"measurement": "MIC", "setting": "S. aureus ATCC 43300; ATCC43300, absence of tomatidine, read-out: MIC −TO", "result": "512 to 1020", "unit": "µg/mL"}, {"measurement": "Fold (−TO/+TO)", "setting": "S. aureus N315; N315, 8 μg/ml of tomatidine", "result": 4, "unit": "fold"}, {"measurement": "MIC", "setting": "S. aureus N315; N315, read-out: MIC +TO", "result": 64, "unit": "µg/mL"}, {"measurement": "MIC", "setting": "S. aureus N315; N315, read-out: MIC −TO", "result": 256, "unit": "µg/mL"}]}]}
